According to patent publication US20150238539A1, “COMPOSITION FOR BRAIN-NEURON PROTECTION AND BRAIN-DISEASE PREVENTION, ALLEVIATION OR TREATMENT COMPRISING MUSKRAT MUSK” (priority 2012, published 2015):

Tests used:
male ICR mouse [1] = assay: Passive avoidance experiment in mice with ethanol-induced memory damage; assay type: in vivo; details: oral once a day for 4 days; for Time of arrival in the learning test: acquisition trial, ethanol orally 30 minutes after last administration; for Time of arrival in the retention trial: step-through latency 24 hours after learning test, measured up to 300 seconds, then ethanol
Method: (§1) As for the experimental animals, 18 to 20 g of 45 male ICR mouse purchased from DAEHAN Animal Experiment Co., Ltd. were used. Specifically, the animals were classified to include five mice per group, then placed in a cage, sufficiently fed with water and foodstuff, and bred in an animal room wherein the temperature (24 ±1° C.), relative humidity (55±5%) and the light-dark (06:00-18:00, light) were controlled during the experiment period. The animals were classified into nine groups of the non-treated group, the ethanol group, the tacrine group and the groups of PREPARATIONS 1 to 6.
The passive avoidance experiment was performed in order to confirm the effects of the compositions of PREPARATIONS 1 to 6 on each memory and learning. This experiment uses the characteristics that animals intend to enter into the dark instinctively. If the animals intend to enter into the dark, an electrical stimulation is given to the animals to prevent from entering the dark. Thereafter, the short-term memory power against the electrical stimulation was measured.
Four days before the passive avoidance experiment, tacrine and substances PREPARATIONS 1 to 6 were orally administered to seven other groups except for the non-treated group and the ethanol group once a day. On day 4, the last day of administration, tacrine and compositions of PREPARATIONS 1 to 6 were orally administered. After 30 minutes, ethanol which undergoes damage to the memory power of mouse was orally administered to eight groups except for the non-treated group.
The passive avoidance experiment was conducted in the apparatus wherein each room having the same structure and 60 dB or less of noise and including a room with light and a room without light (width 20 cm, length 20 cm, height 20 cm) is connected to the guillotin door (Jungdo Bio & Plant Co. Ltd, Seoul, Korea). The mouse was placed in a bright room with shining light and observed for 10 seconds. Subsequently, the door was opened and the mouse was allowed to enter into the dark room. At this time, the time taken to go into a dark room was measured (Learning Test: acquisition trial). If the mouse enters into the dark room, the door is automatically closed. The electrical stimulation of 0.6 mA was given to the mouse through the stainless grid on the bottom for five seconds.
In order to confirm the effect of recovering the cognitive function of the composition the present invention, influencing on the long-term memory after the learning test, the mouse was placed on the bright side of the room after 24 hours. The time taken to go into the dark room (step-through latency time: time of arrival) was measured up to 300 seconds (retention trial).

male ICR mouse [2] = assay: Morris water-maze experiment in mice with ethanol-induced memory damage; assay type: in vivo; details: oral once a day for 4 days, then ethanol; for Mean escape latency: mean of 3 trials a day, cut-off 120 seconds; for Time spent in quadrant: probe test on last day, escape platform removed
Method: as §1
The morris water-maze experiment was carried out to measure the degree affecting the recovery of the spatial perception ability and short-term or long-term memory power in experimental animals.
Prior to the morris water-maze experiment, tacrine and the substances of PREPARATIONS 1 to 6 were orally administered to seven groups except for the non-treated group and the ethanol group once a day. On the 4th day, the last day of administration, tacrine and the substances from Preparations 1 to 6 were administered. After 30 minutes, ethanol which undergoes damage to the memory power of the mouse was orally administered to eight groups except for the non-treated group.
In the morris water-maze apparatus, water (temperature: 22±2° C.) was filled by 32 cm within a tank filled with opaque water (diameter 120 cm, height 45 cm) and an escape platform (diameter 10 cm, height 30 cm) was installed in one section of the quadrant located 2 cm below the surface of the water. The powdered skim milk was added to be invisible. The experiment was conducted for five days. The possibility of going to the escape area by chance by changing the positions of acquisition three times a day at three different positions which were minimized. If animals go to the escape area and stay for more than 10 seconds, the time taken until an escape area was found was set to the escape latency. The mean value of the experiments 3 times a day was set to the mean escape latency. In the morris water-maze test, since the test animals remembered and find out the targeting position, the position of the marker was remained constant during the experiment period so that there was no change in the surrounding environment. In the case where the escape platform was not found within 120 seconds, the experiment animal was induced to the escape platform and stayed for 10 seconds, thereby having the position remembered.
On the last day of the experiment, the escape platform was removed. The probe test for measuring the time spent in platform quadrant was carried out.

SMILES | Time of arrival in the learning test (male ICR mouse [1]) [s] | Time of arrival in the retention trial (male ICR mouse [1]) [s] | Mean escape latency (male ICR mouse [2]) [s] | Time spent in quadrant (male ICR mouse [2]) [s]
CCO [Ethanol, ethanol] | 12 | 21 | 121 | 18
Nc1c2c(nc3ccccc13)CCCC2 [Tacrine, tacrine] | 20 | 85 | 56 | 28
